Laboratory results from patent US8840873B2, “Method of treating second and third degree burns using oxidative reductive potential water solution” (priority 2005, dated 2014).
Where two headings read alike, the source gives them in different places.

Assays:
[1] = system: human diploid fibroblasts (HDFs); experiment: Cell viability, apoptosis and necrosis in HDFs by flow cytometry; details: for apoptosis (Annexin-V): 880 mM HP; for necrosis (cells incorporating propidium iodide) / Cell viability (7AAD): pure ORP water solution or 880 mM HP
[2] = system: human diploid fibroblasts (HDFs); experiment: 8-OHdG DNA adducts in HDFs (ELISA); details: HP 500 μM
primary HDF cultures = experiment: SA-β-galactosidase expression in HDFs after chronic exposure; type: cell-based, human; details: 20 population doublings (one month), ORP water solution 10% or HP 5 μM
From the text: The results are depicted in FIG. 6.

[3] = system: murine polychromatic erythrocytes (bone marrow); details: mice; for PCE/NCE ratio: intraperitoneal, cyclophosphamide 8 mg/mL, 12.5 ml/kg on day 2
Experimental: The mammalian in vivo micronucleus test is used for the identification of substances which cause damage to chromosomes or the mitotic apparatus of murine polychromatic erythrocytes. This damage results in the formation of “micronuclei,” intracellular structures containing lagging chromosome fragments or isolated whole chromosomes. […] The positive control mice received a single intraperitoneal injection of cyclophosphamide (8 mg/mL, 12.5 ml/kg) on day 2. All mice were observed immediately after injection for any adverse reactions. […] On day 3, all mice were weighed and terminated.
The femurs were excised from the terminated mice, the bone marrow was extracted, and duplicate smear preparations were performed for each mouse. The bone marrow slides for each animal were read at 40× magnification. The ratio of polychromatic erythrocytes (PCE) to normochromatic erythrocytes (NCE), an index of bone marrow toxicity, was determined for each mouse by counting a total of at least 200 erythrocytes. Then a minimum of 2000 scoreable PCE per mouse were evaluated for the incidence of micronucleated polychromatic erythrocytes. Statistical analysis of the data were done using the Mann and Whitney test (at 5% risk threshold) from a statistical software package (Statview 5.0, SAS Institute Inc., USA).

OO [HP, hydrogen peroxide]
apoptosis (Annexin-V) ([1]; 5 min exposure): 15%
necrosis (cells incorporating propidium iodide) ([1]; 5 min exposure): 20%
Cell viability (7AAD) ([1]; 5 minute exposure): 55%
apoptosis (Annexin-V) ([1]; 30 min exposure): 20%
Cell viability (7AAD) ([1]; 30 min exposure): 5%
necrosis (cells incorporating propidium iodide) ([1]; 30 min exposure): 75%
8-OHdG adducts relative to control-treated cells ([2]; 30 minutes treatment then 3 hour recovery in supplemented DMEM): about 5 times
8-OHdG adducts relative to control-treated cells ([2]; 30 minutes treatment, DNA extracted right after exposure): about 25 fold
cells expressing SA-β-Gal (primary HDF cultures): 86%

O=P1(N(CCCl)CCCl)NCCCO1 (stereo not drawn) [cyclophosphamide]
PCE/NCE ratio ([3]; females): 0.73
number of polychromatic erythrocytes bearing micronuclei ([3]; males, intraperitoneal 12.5 ml/kg): 11.0
PCE/NCE ratio ([3]; males): 0.77
